Reference: ChEMBL document CHEMBL6177955, “Design, synthesis and biological evaluation of Golgi-targeting anion transporters as inducers of Golgiphagy and apoptosis in cancer cells” (Eur J Med Chem, 2025)
pEC50, pIC50: −log10 of the molar value. Active and inactive are the calls of the source. The rule behind the calls is not given here.

Tests used:
[1] = tested on: Lipid bilayer; experiment: Vesicular anionophoric activity in large unilamellar vesicle membrane derived from egg-yolk L-alpha-phosphatidylcholine assessed as induction of relative efflux of chloride ions in presence of sodium (Na+) measured up to 300 seconds by using chloride-selective electrode; details: time <= 300.0 sec
[2] = tested on: Lipid bilayer; experiment: Vesicular anionophoric activity in large unilamellar vesicle membrane derived from egg-yolk L-alpha-phosphatidylcholine assessed as induction of relative efflux of chloride ions in presence of potassium (K+) measured up to 300 seconds by using chloride-selective electrode; details: time <= 300.0 sec
[3] = tested on: Lipid bilayer; experiment: Vesicular anionophoric activity in large unilamellar vesicle membrane derived from egg-yolk L-alpha-phosphatidylcholine assessed as induction of relative efflux of chloride ions in presence of rubidium (Rb+) measured up to 300 seconds by using chloride-selective electrode; details: time <= 300.0 sec
[4] = tested on: Lipid bilayer; experiment: Vesicular anionophoric activity in Bulky nitrobenzene membrane assessed as induction of relative efflux of chloride ions measured up to 100 hrs by using chloride-selective electrode
[5] = tested on: HepG2; experiment: Antiproliferative activity against human HepG2 cells by MTT assay; format: functional, cell-based
[6] = tested on: HT-29; experiment: Antiproliferative activity against human HT-29 cells by MTT assay; format: functional, cell-based
[7] = tested on: HCT-8; experiment: Antiproliferative activity against human HCT-8 cells by MTT assay; format: functional, cell-based
[8] = tested on: HepG2; experiment: Disruption of homeostasis of chloride anions in golgi apparatus of human HepG2 cells assessed as increase in fluorescence intensity of 6-methoxy-1-(2-oxo-2-((4-sulfamoylphenyl)amino)ethyl)quinolin-1-ium Bromide measured after 12 hts by CLSM imaging analysis; format: functional, cell-based
[9] = tested on: HepG2; experiment: Suppression of Golgi structural and functional protein expression in human HepG2 cells assessed as decrease in GM130 protein expression at 5 to 20 uM measured after 48 hrs incubation by Western blot analysis; format: cell-based; details: dose 5-20 µM
[10] = tested on: HepG2; experiment: Suppression of Golgi structural and functional protein expression in human HepG2 cells assessed as decrease in GRASP55 protein expression at 5 to 20 uM measured after 48 hrs incubation by Western blot analysis; format: cell-based; details: dose 5-20 µM
[11] = tested on: HepG2; experiment: Effect on dysregulation mediated autophagy in human HepG2 cells assessed as increase in p62 marker expression at 5 to 20 uM measured after 48 hrs incubation by Western blot analysis; format: functional, cell-based; details: dose 5-20 µM
[12] = tested on: HepG2; experiment: Effect on dysregulation mediated autophagy in human HepG2 cells assessed as increase in LC3B marker expression at 5 to 20 uM measured after 48 hrs incubation by Western blot analysis; format: functional, cell-based; details: dose 5-20 µM
[13] = tested on: HepG2; experiment: Induction of autophagosome formation in human HepG2 cells assessed as green fluorescence in lysosomes by measuring pearson co-localization at 10 uM measured after 12 hrs incubation by mCherry-LC3B assay; format: functional
[14] = tested on: HepG2; experiment: Induction of apoptosis in human HepG2 cells assessed as viable cells at 5 uM measured after 24 hrs incubation by Propidium iodide/Annexin V-FITC analysis (reference value: 90.2%); format: functional; details: read-out: Activity
[15] = tested on: HepG2; experiment: Induction of apoptosis in human HepG2 cells assessed as early apoptotic cells at 5 uM measured after 24 hrs incubation by Propidium iodide/Annexin V-FITC analysis (reference value: 2.90%); format: functional
[16] = tested on: HepG2; experiment: Induction of apoptosis in human HepG2 cells assessed as late apoptotic cells at 5 uM measured after 24 hrs incubation by Propidium iodide/Annexin V-FITC analysis (reference value: 5.71%); format: functional
[17] = tested on: HepG2; experiment: Induction of apoptosis in human HepG2 cells assessed as early apoptotic cells at 10 uM measured after 24 hrs incubation by Propidium iodide/Annexin V-FITC analysis (reference value: 2.90%); format: functional
[18] = tested on: HepG2; experiment: Induction of apoptosis in human HepG2 cells assessed as late apoptotic cells at 10 uM measured after 24 hrs incubation by Propidium iodide/Annexin V-FITC analysis (reference value: 5.71%); format: functional
[19] = tested on: HepG2; experiment: Induction of apoptosis in human HepG2 cells assessed as necrotic cells at 10 uM measured after 24 hrs incubation by Propidium iodide/Annexin V-FITC analysis (reference value: 1.14%); format: functional
[20] = tested on: HepG2; experiment: Induction of apoptosis in human HepG2 cells assessed as viable cells at 20 uM measured after 24 hrs incubation by Propidium iodide/Annexin V-FITC analysis (reference value: 90.2%); format: functional; details: read-out: Activity
[21] = tested on: HepG2; experiment: Induction of apoptosis in human HepG2 cells assessed as early apoptotic cells at 20 uM measured after 24 hrs incubation by Propidium iodide/Annexin V-FITC analysis (reference value: 2.90%); format: functional
[22] = tested on: HepG2; experiment: Induction of apoptosis in human HepG2 cells assessed as necrotic cells at 20 uM measured after 24 hrs incubation by Propidium iodide/Annexin V-FITC analysis (reference value: 1.14%); format: functional
[23] = tested on: HepG2; experiment: Cell cycle arrest in human HepG2 cells assessed as accumulation of cells at G2/M phase at 5 uM measured after 24 hrs incubation by flow cytometric analysis; format: functional
[24] = tested on: HepG2; experiment: Cell cycle arrest in human HepG2 cells assessed as accumulation of cells at G2/M phase at 10 uM measured after 24 hrs incubation by flow cytometric analysis; format: functional
[25] = tested on: HepG2; experiment: Cell cycle arrest in human HepG2 cells assessed as accumulation of cells at G2/M phase at 20 uM measured after 24 hrs incubation by flow cytometric analysis; format: functional
[26] = tested on: HepG2; experiment: Antitumor activity against human HepG2 cells xenografted mouse model assessed as reduction in tumor weight at 5 to 10 mg/kg, ip administered once every 2 days for 21 days; format: functional, organism-based; details: dose 5-10 mg/kg, time 21.0 day
[27] = tested on: HepG2; experiment: Antitumor activity against human HepG2 cells xenografted mouse model assessed as reduction in tumor growth inhibition at 10 mg/kg, ip administered once every 2 days for 21 days relative to control; format: functional; details: HepG2, 504 h, time 21 day, read-out: TGI
[28] = tested on: HepG2; experiment: Antitumor activity against human HepG2 cells xenografted mouse model assessed as reduction in tumor growth inhibition at 1 mg/kg, ip administered once every 2 days for 21 days relative to control; format: functional; details: HepG2, 504 h, time 21 day, read-out: TGI
[29] = Toxicity in mouse xenografted with human HepG2 cells assessed as body weight change at 5 to 10 mg/kg, ip administered once every 2 days for 21 days; format: organism-based; details: in vivo, 504 h, dose 5-10 mg/kg, time 21 day
[30] = Toxicity in mouse xenografted with human HepG2 cells assessed as histopathological changes in heart at 5 to 10 mg/kg, ip administered once every 2 days for 21 days by H and E staining based analysis; format: organism-based; details: in vivo, 504 h, dose 5-10 mg/kg, time 21 day
[31] = Toxicity in mouse xenografted with human HepG2 cells assessed as histopathological changes in kidney at 5 to 10 mg/kg, ip administered once every 2 days for 21 days by H and E staining based analysis; format: organism-based; details: in vivo, 504 h, dose 5-10 mg/kg, time 21 day
[32] = Toxicity in mouse xenografted with human HepG2 cells assessed as alanine aminotransferase (ALT) in serum at 5 to 10 mg/kg, ip administered once every 2 days for 21 days; format: organism-based; details: in vivo, 504 h, dose 5-10 mg/kg, time 21 day
[33] = Toxicity in mouse xenografted with human HepG2 cells assessed as aspartate aminotransferase (AST) at 5 to 10 mg/kg, ip administered once every 2 days for 21 days; format: organism-based; details: in vivo, 504 h, dose 5-10 mg/kg, time 21 day
[34] = Toxicity in mouse xenografted with human HepG2 cells assessed as blood urea nitrogen (BUN) at 5 to 10 mg/kg, ip administered once every 2 days for 21 days; format: organism-based; details: in vivo, 504 h, dose 5-10 mg/kg, time 21 day
[35] = Toxicity in mouse xenografted with human HepG2 cells assessed as lactate dehydrogenase (LDH) at 5 to 10 mg/kg, ip administered once every 2 days for 21 days; format: organism-based; details: in vivo, 504 h, dose 5-10 mg/kg, time 21 day

Activity [1]: Active | Activity [2]: Active | Activity [3]: Active | pIC50 [5]: 5.15 | pIC50 [6]: < 4.30 | pIC50 [7]: < 4.30 | pEC50 [8]: 4.86
Compound: NS(=O)(=O)c1ccc(NC(=O)CCCCCNc2c(Nc3cc(C(F)(F)F)cc(C(F)(F)F)c3)c(=O)c2=O)cc1
Activity [4]: Active; Compound Exhibit Anion Transport Activity Most Probably Through Carrier Mechanism | Activity [9]: Active | Activity [10]: Active | Activity [11]: Active | Activity [12]: Active | Activity [13]: 0.58 | viability at 5 µM [14]: 73.5% | Activity [15]: 12% | Activity [16]: 12.9% | Activity [17]: 20.2% | Activity [18]: 24.6% | Activity [19]: 5.17% | viability at 20 µM [20]: 22.1% | Activity [21]: 34.2% | Activity [22]: 7.19% | Activity [23]: 6.95% | Activity [24]: 17.16% | Activity [25]: 44.07% | Activity [26]: Active | inhibition in vivo at 10 mg/kg [27]: 77% | inhibition in vivo at 1 mg/kg [28]: 41% | Activity [29]: Non-toxic | Activity [30]: Non-toxic | Activity [31]: Non-toxic | Activity [32]: Non-toxic | Activity [33]: Non-toxic | Activity [34]: Non-toxic | Activity [35]: Non-toxic
